The text below walks through data of patent US5364848A, “Substituted cephalosporin sulfones as anti-inflammatory and antidegenerative agents” (Merck & Co., Inc., priority 1992, dated 1994).

Read-outs that look alike come from different tables or passages of the source.

Assay [1] addresses T1, Human Polymorphonuclear Leukocyte Elastase (Homo sapiens, UniProt P08246).
T1 sequence (P08246 30-247 limits assumed): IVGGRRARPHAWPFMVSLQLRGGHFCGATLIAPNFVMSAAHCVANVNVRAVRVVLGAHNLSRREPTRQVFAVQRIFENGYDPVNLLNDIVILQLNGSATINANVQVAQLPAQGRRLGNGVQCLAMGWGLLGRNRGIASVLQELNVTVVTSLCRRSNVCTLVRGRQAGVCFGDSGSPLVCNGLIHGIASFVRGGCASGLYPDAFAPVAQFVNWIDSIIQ
The assay can be described thus: biochemical. The procedure: Protocol--Enzyme Assays for the Inhibition of Human Polymorphonuclear Leukocyte Elastase Via Hydrolysis of N-t-Boc-alanyl-alanyl-prolylalanine-p-nitroanilide Reagents:
0.05M TES (N-tris[hydroxymethyl]methyl-2-amino-ethanesulfonic acid) Buffer, pH 7.5.
0.2 mMN-t-Boc-alanyl -alanyl -prolyl-alanine-p-nitroanilide (Boc-AAPAN).
To prepare substrate, the solid (m.w. 550) was first dissolved in 10.0 ml DMSO. Buffer at pH 7.5 was then added to a final volume of 100 ml.
Crude extract of human polymorphonuclear leukocytes (PMN) containing elastase activity.
Inhibitors (cephalosporin sulfone esters) to be tested dissolved in DMSO just before use.
To 1.0 ml of 0.2 mM Boc-AAPAN in a cuvette, 0.01-0.1 ml of DMSO with or without inhibitor was added. After mixing, a measurement was taken at 410 mμ to detect any spontaneous hydrolysis due to presence of test compound. 0.05 Milliliters of PMN extract was then added and the ΔOD/min at 410 mμ was measured and recorded. Beckman model 35 spectrophotometer was used.
The elastase activity in the crude PMN extract may vary from one preparation to another. A control of each new batch is run, and the volume added in the assay procedure is adjusted according to activity.

In assay [2] the test system is PG synthesis. To be noted: background statement; cited from earlier work.
Assay [3] relates to elastase both from the pancreas and the PMN. Conditions: background statement; cited from earlier work.
[4] abbreviates: Table II, 50% inhibition of the enzyme activity 2 minutes after zero time, crude PMN extract, pH 7.5, 0.2 mM Boc-AAPAN, read-out: ED50 (the source's name) (converted).

For `CO[C@H]1C(=O)N2C(C(=O)OC(C)(C)C)=C(C(=O)O)CS(=O)(=O)C12` (stereo partly drawn) [R1=OCH3, M=COOH, B=OtBu, Q=H, t-Butyl 3-hydroxycarbonyl-7α-methoxy-8-oxo-5-thia-1-azabicyclo[4.2.0]oct-2-ene-2-carboxylate-5,5 dioxide], the IC50 in assay [1] (setting [4]) was 28.8 nM.
Consider `COC(=O)C1=C(Cl)CS(=O)(=O)C2[C@@H](OC)C(=O)N12` (stereo partly drawn) [R1=OCH3, M=Cl, B=OCH3, Q=H, Methyl-3-chloro-7α-methoxy-8-oxo-5-thia-1-azabicyclo[4.2.0]oct-2-ene-2-carboxylate-5,5-dioxide], for which the IC50 in assay [1] (setting [4]) is 676 nM.
Turning to `COC1C(=O)N2C(C(=O)OC(C)(C)C)=C(COC(=O)CN(C)C(=O)OC(C)(C)C)CS(=O)(=O)C12` (centres unmarked) [R1=OCH3, M=drawing 38, B=OtBu, Q=H], the IC50 in assay [1] (setting [4]) is 198 nM.
Still for that read-out and setting: the result for `COC1C(=O)N2C(C(=O)OC(C)(C)C)=C(CSc3nc[nH]n3)CS(=O)(=O)C12` (centres unmarked) [R1=OCH3, M=drawing 39, B=OtBu, Q=H] reads 2160 nM; that for `CCOC(=S)SCC1=C(C(=O)OC(C)(C)C)N2C(=O)C(OC)C2S(=O)(=O)C1` (centres unmarked) [R1=OCH3, M=drawing 40, B=OtBu, Q=H], 1600 nM.
With `COC1C(=O)N2C(C(=O)OC(C)(C)C)=C(CSc3nccn3C)CS(=O)(=O)C12` (centres unmarked) [R1=OCH3, M=drawing 41, B=OtBu, Q=H], the IC50 in assay [1] was 2330 nM.
On the same count and under the same terms, the value for `COC1C(=O)N2C(C(=O)OC(C)(C)C)=C(CSc3nnc(C)s3)CS(=O)(=O)C12` (centres unmarked) [R1=OCH3, M=drawing 42, B=OtBu, Q=H] was 2230 nM.
Consider `COC1C(=O)N2C(C(=O)OC(C)(C)C)=C(CSc3nc4ccccc4s3)CS(=O)(=O)C12` (centres unmarked) [R1=OCH3, M=drawing 43, B=OtBu, Q=H], for which, in assay [1] (setting [4]), the IC50 was 6220 nM.
Still for that read-out and setting: the value for `COC1C(=O)N2C(C(=O)OC(C)(C)C)=C(CSc3cn[nH]n3)CS(=O)(=O)C12` (centres unmarked) [R1=OCH3, M=drawing 44, B=OtBu, Q=H] was 1440 nM; that for `COC1C(=O)N2C(C(=O)OC(C)(C)C)=C(CSc3nnnn3C)CS(=O)(=O)C12` (centres unmarked) [R1=OCH3, M=drawing 45, B=OtBu, Q=H] was 1390 nM; that for `CC(=O)OCC1=C(C(=O)OCc2ccccc2)N2C(=O)C(OC(C)=O)C2S(=O)(=O)C1` (centres unmarked) [R1=OCOCH3, M=CH2OCOCH3, B=OCH2.phi., Q=H] was 914 nM.
On to `CC(=O)OCC1=C(C(=O)OC(C)(C)C)N2C(=O)C(OC=O)C2S(=O)(=O)C1` (centres unmarked) [R1=drawing 36, M=CH2OCOCH3, B=OtBu, Q=H], for which, in assay [1] (setting [4]), the IC50 is 385 nM.
The same measure, in the same setting: the result for `COC(=O)C1=C(COC(C)=O)CS(=O)(=O)C2C(OC=O)C(=O)N12` (centres unmarked) [R1=drawing 37, M=CH2OCOCH3, B=OCH3, Q=H] reads 288 nM.
With `COc1ccc2c(c1)c(CC(=O)O)c(C)n2C(=O)c1ccc(Cl)cc1` [indomethacin], the “inhibition of PG synthesis” value in assay [2] was “inhibited”.
`CCCCC1C(=O)N(c2ccccc2)N(c2ccccc2)C1=O` [phenylbutazone]: the “inhibition of PG synthesis” value in assay [2] is “inhibited”.
For the compound `CO[C@H]1C(=O)N2C(C(=O)OC(C)(C)C)=C(COC(C)=O)C(CSc3ccccc3)S(=O)(=O)[C@H]12` (stereo partly drawn) [t-Butyl 3-acetyloxymethyl-7α-methoxy-4-phenylthiomethyl-8-oxo-5-thia-1-azabicyclo[4.2.0]oct-2-ene-2-carboxylate-5,5-dioxide], the IC50 in assay [1] (setting [4]) was 60.3 nM.
Take “α1 -Antitrypsin: a glycoprotein contained in human serum that has a wide inhibitory spectrum”: the inhibitory spectrum entry in assay [3] was “wide inhibitory spectrum covering, among other enzymes, elastase both from the pancreas and the PMN”.
